# Measured values reported in ChEMBL document CHEMBL4507270 (2021).
# Columns and labels:
# [1] = target: Alpha-2B adrenergic receptor (Homo sapiens) (UniProt P18089); details: Compound concentration 10.0 uM
# [2] = target: Activin receptor type-1-like (Homo sapiens) (UniProt P37023)
# [3] = target: Serine/threonine-protein kinase PRP4 homolog (Homo sapiens) (UniProt Q13523)
# [4] = test system: Epidermal growth factor receptor (Homo sapiens), P00533 [L858R,T790M]
# [5] = target: Serine/threonine-protein kinase PLK3 (Homo sapiens) (UniProt Q9H4B4)
# [6] = target: Ribosomal protein S6 kinase alpha-5 (Homo sapiens) (UniProt O75582)
# [7] = target: SRSF protein kinase 2 (Homo sapiens) (UniProt P78362)
# [8] = target: Dual specificity tyrosine-phosphorylation-regulated kinase 1B (Homo sapiens) (UniProt Q9Y463)
# [9] = test system: Receptor-type tyrosine-protein kinase FLT3 (Homo sapiens), P36888 [D835V]
# [10] = target: Tyrosine-protein kinase CSK (Homo sapiens) (UniProt P41240)
# [11] = target: Calcium/calmodulin-dependent protein kinase type IV (Homo sapiens) (UniProt Q16566)
# [12] = target: Platelet-derived growth factor receptor alpha (Homo sapiens) (UniProt P16234)
# [13] = target: Serine/threonine-protein kinase LATS2 (Homo sapiens) (UniProt Q9NRM7)
# [14] = target: Serine/threonine-protein kinase 4 (Homo sapiens) (UniProt Q13043)
# [15] = target: Cyclin-dependent kinase 4 (Homo sapiens) (UniProt P11802)
# [16] = target: Phosphatidylinositol 3-kinase catalytic subunit type 3 (Homo sapiens) (UniProt Q8NEB9)
# [17] = target: Wee1-like protein kinase (Homo sapiens) (UniProt P30291)
# [18] = target: Mitogen-activated protein kinase kinase kinase 10 (Homo sapiens) (UniProt Q02779)
# [19] = target: Cyclin-G-associated kinase (Homo sapiens) (UniProt O14976)
# [20] = test system: ALK tyrosine kinase receptor (Homo sapiens), Q9UM73 [C1156Y]
# [21] = target: Mitogen-activated protein kinase 15 (Homo sapiens) (UniProt Q8TD08)
# [22] = test system: Tyrosine-protein kinase ABL1 (Homo sapiens), P00519 [F317I]
# [23] = test system: Fibroblast growth factor receptor 3 (Homo sapiens), P22607 [G697C]
# [24] = target: Ribosomal protein S6 kinase alpha-3 (Homo sapiens) (UniProt P51812)
# [25] = target: Tyrosine-protein kinase Lyn (Homo sapiens) (UniProt P07948)
# [26] = target: Ephrin type-A receptor 1 (Homo sapiens) (UniProt P21709)
# [27] = target: Cyclin-dependent kinase 17 (Homo sapiens) (UniProt Q00537)
# [28] = target: Dual specificity mitogen-activated protein kinase kinase 1 (Homo sapiens) (UniProt Q02750)
# [29] = target: 5-hydroxytryptamine receptor 1E (Homo sapiens) (UniProt P28566); details: Compound concentration 10.0 uM
# [30] = target: Histamine H2 receptor (Homo sapiens) (UniProt P25021); details: Compound concentration 10.0 uM
# [31] = target: Phosphatidylinositol 4-kinase beta (Homo sapiens) (UniProt Q9UBF8)
# [32] = target: Mitogen-activated protein kinase kinase kinase 6 (Homo sapiens) (UniProt O95382)
# [33] = target: Calcium/calmodulin-dependent protein kinase type 1 (Homo sapiens) (UniProt Q14012)
# [34] = target: Muscarinic acetylcholine receptor M5 (Homo sapiens) (UniProt P08912); details: Compound concentration 10.0 uM
# [35] = target: Serine/threonine-protein kinase Nek4 (Homo sapiens) (UniProt P51957)
# [36] = target: Ephrin type-A receptor 4 (Homo sapiens) (UniProt P54764)
# [37] = target: Serine/threonine-protein kinase DCLK3 (Homo sapiens) (UniProt Q9C098)
# [38] = target: Myosin light chain kinase, smooth muscle (Homo sapiens) (UniProt Q15746)
# [39] = test system: Epidermal growth factor receptor (Homo sapiens), P00533 [L861Q]
# [40] = target: Serine/threonine-protein kinase MARK2 (Homo sapiens) (UniProt Q7KZI7)
# [41] = test system: Receptor-type tyrosine-protein kinase FLT3 (Homo sapiens), P36888 [N841I]
# [42] = target: Cyclin-dependent kinase-like 5 (Homo sapiens) (UniProt O76039)
# [43] = target: Ribosomal protein S6 kinase alpha-1 (Homo sapiens) (UniProt Q15418)
# [44] = target: Protein kinase C delta type (Homo sapiens) (UniProt Q05655)
# [45] = test system: Proto-oncogene tyrosine-protein kinase receptor Ret (Homo sapiens), P07949 [V804L]
# [46] = Compound concentration 1000.0 nM
# [47] = Compound concentration 100.0 nM
# Sequence of Ribosomal protein S6 kinase alpha-1 (Homo sapiens) (Q15418 whole entry): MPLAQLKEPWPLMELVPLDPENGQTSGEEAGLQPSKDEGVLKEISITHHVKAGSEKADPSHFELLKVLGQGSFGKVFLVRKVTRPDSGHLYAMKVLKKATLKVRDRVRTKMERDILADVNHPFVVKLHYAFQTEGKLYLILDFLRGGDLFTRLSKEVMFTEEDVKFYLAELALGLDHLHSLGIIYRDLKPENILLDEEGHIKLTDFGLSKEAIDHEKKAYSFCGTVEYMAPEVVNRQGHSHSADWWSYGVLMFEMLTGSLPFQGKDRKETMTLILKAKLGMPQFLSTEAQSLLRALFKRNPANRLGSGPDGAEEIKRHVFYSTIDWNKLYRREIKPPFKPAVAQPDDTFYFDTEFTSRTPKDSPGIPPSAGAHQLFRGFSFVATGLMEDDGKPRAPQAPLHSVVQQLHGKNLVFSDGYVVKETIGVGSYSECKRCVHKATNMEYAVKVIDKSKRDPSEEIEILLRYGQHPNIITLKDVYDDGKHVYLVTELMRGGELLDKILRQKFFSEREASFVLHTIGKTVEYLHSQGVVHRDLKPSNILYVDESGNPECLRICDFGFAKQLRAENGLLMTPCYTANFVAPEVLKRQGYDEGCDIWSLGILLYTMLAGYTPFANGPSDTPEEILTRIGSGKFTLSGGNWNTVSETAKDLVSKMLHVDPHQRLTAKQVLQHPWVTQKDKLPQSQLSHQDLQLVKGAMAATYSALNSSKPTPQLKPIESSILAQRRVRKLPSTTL
# Sequence of Mitogen-activated protein kinase kinase kinase 6 (Homo sapiens) (O95382 whole entry): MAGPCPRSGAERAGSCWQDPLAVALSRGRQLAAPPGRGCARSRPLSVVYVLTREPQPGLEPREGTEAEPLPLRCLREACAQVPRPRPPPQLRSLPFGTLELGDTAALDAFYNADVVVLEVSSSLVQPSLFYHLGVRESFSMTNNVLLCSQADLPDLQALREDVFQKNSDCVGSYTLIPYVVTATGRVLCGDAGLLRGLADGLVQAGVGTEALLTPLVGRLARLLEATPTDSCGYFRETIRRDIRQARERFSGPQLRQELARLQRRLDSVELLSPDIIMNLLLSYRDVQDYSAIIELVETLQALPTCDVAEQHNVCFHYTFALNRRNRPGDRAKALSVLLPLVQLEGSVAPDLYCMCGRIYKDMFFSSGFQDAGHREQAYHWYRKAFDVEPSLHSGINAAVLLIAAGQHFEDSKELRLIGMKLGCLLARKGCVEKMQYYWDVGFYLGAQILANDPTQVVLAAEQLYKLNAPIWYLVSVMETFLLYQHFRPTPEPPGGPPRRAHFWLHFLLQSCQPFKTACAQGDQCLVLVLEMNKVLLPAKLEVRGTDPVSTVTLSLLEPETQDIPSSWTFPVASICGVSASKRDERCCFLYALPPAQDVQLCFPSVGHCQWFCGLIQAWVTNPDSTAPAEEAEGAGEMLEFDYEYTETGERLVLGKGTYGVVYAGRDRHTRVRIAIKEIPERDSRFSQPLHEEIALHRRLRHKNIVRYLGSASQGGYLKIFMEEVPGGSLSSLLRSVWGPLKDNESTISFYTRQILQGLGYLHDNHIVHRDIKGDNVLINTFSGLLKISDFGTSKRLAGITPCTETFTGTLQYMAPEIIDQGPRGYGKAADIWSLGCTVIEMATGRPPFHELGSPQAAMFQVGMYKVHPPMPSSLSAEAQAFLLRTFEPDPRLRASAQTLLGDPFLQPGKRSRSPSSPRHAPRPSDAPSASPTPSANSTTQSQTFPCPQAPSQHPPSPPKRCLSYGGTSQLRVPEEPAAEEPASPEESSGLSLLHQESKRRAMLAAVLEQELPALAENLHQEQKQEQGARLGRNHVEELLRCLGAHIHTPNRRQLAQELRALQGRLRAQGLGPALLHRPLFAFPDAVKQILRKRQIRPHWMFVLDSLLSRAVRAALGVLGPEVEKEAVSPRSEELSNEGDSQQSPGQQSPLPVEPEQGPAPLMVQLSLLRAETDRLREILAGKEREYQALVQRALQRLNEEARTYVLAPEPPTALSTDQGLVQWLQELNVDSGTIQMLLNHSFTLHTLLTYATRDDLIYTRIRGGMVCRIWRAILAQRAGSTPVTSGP
# Sequence of Serine/threonine-protein kinase 4 (Homo sapiens) (Q13043 whole entry): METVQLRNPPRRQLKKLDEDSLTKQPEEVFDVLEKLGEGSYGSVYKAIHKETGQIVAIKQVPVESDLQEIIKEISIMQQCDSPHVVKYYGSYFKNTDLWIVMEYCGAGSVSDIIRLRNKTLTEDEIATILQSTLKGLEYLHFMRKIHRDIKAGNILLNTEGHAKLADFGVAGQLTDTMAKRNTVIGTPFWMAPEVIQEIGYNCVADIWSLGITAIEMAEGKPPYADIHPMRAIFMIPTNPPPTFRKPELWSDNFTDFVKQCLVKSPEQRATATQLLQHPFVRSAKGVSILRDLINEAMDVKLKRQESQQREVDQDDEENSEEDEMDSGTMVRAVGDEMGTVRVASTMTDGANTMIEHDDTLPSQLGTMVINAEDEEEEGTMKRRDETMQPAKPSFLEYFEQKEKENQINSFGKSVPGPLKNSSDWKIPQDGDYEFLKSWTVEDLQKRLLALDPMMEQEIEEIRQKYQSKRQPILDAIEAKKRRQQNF
# Sequence of Cyclin-G-associated kinase (Homo sapiens) (O14976 whole entry): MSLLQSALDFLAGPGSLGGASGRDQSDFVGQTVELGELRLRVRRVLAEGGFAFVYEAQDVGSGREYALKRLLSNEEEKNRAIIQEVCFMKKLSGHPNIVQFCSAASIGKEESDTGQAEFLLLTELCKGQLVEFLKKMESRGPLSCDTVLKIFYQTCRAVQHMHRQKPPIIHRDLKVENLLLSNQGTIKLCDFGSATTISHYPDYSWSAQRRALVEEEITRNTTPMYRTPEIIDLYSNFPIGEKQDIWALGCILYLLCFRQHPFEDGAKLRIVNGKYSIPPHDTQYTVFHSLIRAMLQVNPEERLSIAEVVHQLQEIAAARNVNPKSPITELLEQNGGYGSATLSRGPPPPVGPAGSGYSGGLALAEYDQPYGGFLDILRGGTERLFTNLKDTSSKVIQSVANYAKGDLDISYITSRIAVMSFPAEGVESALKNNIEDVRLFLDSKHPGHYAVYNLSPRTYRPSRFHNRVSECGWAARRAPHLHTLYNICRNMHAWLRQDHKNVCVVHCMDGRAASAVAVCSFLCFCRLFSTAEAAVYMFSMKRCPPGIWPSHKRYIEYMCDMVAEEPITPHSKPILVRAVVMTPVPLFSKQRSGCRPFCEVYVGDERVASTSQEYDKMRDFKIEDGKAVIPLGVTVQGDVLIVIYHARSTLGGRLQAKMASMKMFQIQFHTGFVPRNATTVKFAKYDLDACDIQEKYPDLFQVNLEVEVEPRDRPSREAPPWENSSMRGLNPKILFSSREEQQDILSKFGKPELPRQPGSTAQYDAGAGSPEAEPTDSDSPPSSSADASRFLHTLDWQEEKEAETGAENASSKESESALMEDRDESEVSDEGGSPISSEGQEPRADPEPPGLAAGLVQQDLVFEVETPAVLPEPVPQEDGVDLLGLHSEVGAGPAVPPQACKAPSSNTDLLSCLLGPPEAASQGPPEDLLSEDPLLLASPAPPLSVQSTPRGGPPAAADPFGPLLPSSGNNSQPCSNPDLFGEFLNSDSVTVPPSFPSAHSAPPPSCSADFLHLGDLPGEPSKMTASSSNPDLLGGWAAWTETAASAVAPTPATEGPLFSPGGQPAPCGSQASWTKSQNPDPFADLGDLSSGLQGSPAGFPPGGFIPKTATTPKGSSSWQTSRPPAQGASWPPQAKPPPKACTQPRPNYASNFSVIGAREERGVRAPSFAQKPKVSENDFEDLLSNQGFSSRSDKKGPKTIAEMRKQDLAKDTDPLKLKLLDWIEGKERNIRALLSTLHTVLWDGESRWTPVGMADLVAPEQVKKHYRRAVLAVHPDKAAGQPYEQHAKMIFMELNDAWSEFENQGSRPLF
# Sequence of Serine/threonine-protein kinase PRP4 homolog (Homo sapiens) (Q13523 whole entry): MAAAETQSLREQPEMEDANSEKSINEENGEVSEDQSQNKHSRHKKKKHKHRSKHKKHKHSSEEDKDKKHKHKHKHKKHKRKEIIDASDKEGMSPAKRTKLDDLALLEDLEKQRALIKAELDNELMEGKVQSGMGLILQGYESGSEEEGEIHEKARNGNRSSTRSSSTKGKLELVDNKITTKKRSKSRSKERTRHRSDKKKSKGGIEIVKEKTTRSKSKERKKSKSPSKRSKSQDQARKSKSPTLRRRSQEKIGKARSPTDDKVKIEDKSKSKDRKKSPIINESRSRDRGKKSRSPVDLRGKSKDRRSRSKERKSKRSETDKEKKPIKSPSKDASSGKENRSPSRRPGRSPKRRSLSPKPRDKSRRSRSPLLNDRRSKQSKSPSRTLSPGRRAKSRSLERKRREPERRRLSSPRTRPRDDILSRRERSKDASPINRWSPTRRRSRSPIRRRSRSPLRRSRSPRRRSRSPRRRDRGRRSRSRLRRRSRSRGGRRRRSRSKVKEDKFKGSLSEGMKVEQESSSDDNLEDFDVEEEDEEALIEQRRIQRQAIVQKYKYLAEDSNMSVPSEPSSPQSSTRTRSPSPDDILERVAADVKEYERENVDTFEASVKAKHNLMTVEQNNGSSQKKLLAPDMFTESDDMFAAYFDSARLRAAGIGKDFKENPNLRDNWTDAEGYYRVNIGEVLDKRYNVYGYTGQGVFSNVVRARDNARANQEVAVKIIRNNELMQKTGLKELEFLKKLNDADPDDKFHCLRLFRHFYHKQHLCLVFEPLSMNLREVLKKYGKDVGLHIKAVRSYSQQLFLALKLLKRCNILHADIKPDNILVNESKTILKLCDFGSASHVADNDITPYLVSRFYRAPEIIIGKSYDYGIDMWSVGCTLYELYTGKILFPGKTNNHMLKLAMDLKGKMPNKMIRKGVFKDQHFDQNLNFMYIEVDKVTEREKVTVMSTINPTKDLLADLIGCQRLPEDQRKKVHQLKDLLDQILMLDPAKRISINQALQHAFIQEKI
compound,measurement,setting,value
Cc1cc(NC(=O)c2cccc(S(F)(F)(F)(F)F)c2)cc(-n2ccn3nc(-c4cccnc4)cc23)c1 [BAY-309],inhibition,[1],11.9%
same,residual activity,[2]; [46],100%
same,residual activity,[3]; [46],99.7%
same,residual activity,[4]; [46],97.6%
same,residual activity,[5]; [46],69.4%
same,residual activity,[6]; [46],100%
same,residual activity,[7]; [46],100%
same,residual activity,[8]; [46],61.2%
same,residual activity,[9]; [46],100%
same,residual activity,[10]; [46],100%
same,residual activity,[11]; [46],80.5%
same,residual activity,[12]; [46],100%
same,residual activity,[13]; [46],100%
same,residual activity,[14]; [46],100%
same,residual activity,[15]; [46],100%
same,residual activity,[16]; [46],76.6%
same,residual activity,[17]; [46],100%
same,residual activity,[18]; [46],100%
same,residual activity,[19]; [46],100%
same,residual activity,[20]; [46],100%
same,residual activity,[21]; [46],100%
same,residual activity,[22]; [46],100%
same,residual activity,[23]; [46],100%
same,residual activity,[24]; [46],66.6%
same,residual activity,[25]; [46],100%
same,residual activity,[26]; [46],100%
same,residual activity,[27]; [46],83.8%
same,residual activity,[28]; [46],100%
same,inhibition,[29],19.9%
same,inhibition,[30],46.1%
same,residual activity,[31]; [46],78.6%
same,residual activity,[32]; [46],62.7%
same,residual activity,[33]; [46],77.9%
same,inhibition,[34],8.74%
same,residual activity,[35]; [46],92.9%
same,residual activity,[36]; [46],76%
same,residual activity,[37]; [46],100%
same,residual activity,[38]; [46],91.8%
same,residual activity,[39]; [46],98.2%
same,residual activity,[40]; [46],100%
same,residual activity,[41]; [46],100%
same,residual activity,[42]; [46],100%
same,residual activity,[43]; [46],100%
same,residual activity,[44]; [46],95.8%
same,residual activity,[45]; [46],100%
Cc1cc(C)c(-n2ccn3nc(-c4cccnc4)cc23)cc1NC(=O)c1cc(C#N)cc(S(F)(F)(F)(F)F)c1 [BAY-826],inhibition,[1],18.1%
same,residual activity,[2]; [47],78.9%
same,residual activity,[3]; [47],80.6%
same,residual activity,[4]; [47],100%
same,residual activity,[5]; [47],81.8%
same,residual activity,[6]; [47],100%
same,residual activity,[7]; [47],60.1%
same,residual activity,[8]; [47],100%
same,residual activity,[9]; [47],85.2%
same,residual activity,[10]; [47],77.9%
same,residual activity,[11]; [47],93.9%
same,residual activity,[12]; [47],67.4%
same,residual activity,[13]; [47],73.2%
same,residual activity,[14]; [47],88.5%
same,residual activity,[15]; [47],86.2%
same,residual activity,[16]; [47],84.9%
same,residual activity,[17]; [47],100%
same,residual activity,[18]; [47],100%
same,residual activity,[19]; [47],83.3%
same,residual activity,[20]; [47],76.6%
same,residual activity,[21]; [47],94.1%
same,residual activity,[22]; [47],65.8%
same,residual activity,[23]; [47],100%
same,residual activity,[24]; [47],84.4%
same,residual activity,[25]; [47],46%
same,residual activity,[26]; [47],100%
same,residual activity,[27]; [47],99.3%
same,residual activity,[28]; [47],76.2%
same,inhibition,[29],3.57%
same,inhibition,[30],25.6%
same,residual activity,[31]; [47],64.7%
same,residual activity,[32]; [47],100%
same,residual activity,[33]; [47],60.4%
same,inhibition,[34],16.1%
same,residual activity,[35]; [47],90.2%
same,residual activity,[36]; [47],100%
same,residual activity,[37]; [47],83.5%
same,residual activity,[38]; [47],57.7%
same,residual activity,[39]; [47],91.1%
same,residual activity,[40]; [47],100%
same,residual activity,[41]; [47],95.3%
same,residual activity,[42]; [47],100%
same,residual activity,[43]; [47],100%
same,residual activity,[44]; [47],93.1%
same,residual activity,[45]; [47],93.6%
